Counter-ions that a name gives are not always drawn.
Target: T1, human ROCK-1 kinase domain (1 to 477 amino acids) (Homo sapiens, UniProt Q13464)
T1 construct: a vector that expresses the kinase domain (1 to 477 amino acids) of the ROCK-1 protein; His-Tag (6xHis); made in house; host or cells: Sf9 insect cells, recombinant baculovirus (pBAC-1 vector)
Assay: Rho kinase inhibitory activity (inhibitory activity on human Rho kinase)
Format: biochemical
Details: recombinant His-tagged human ROCK-1 kinase domain, histone substrate, 1 μM [32P]ATP, room temperature 20 min
Experimental: Rho Kinase Inhibitory Activity (Inhibitory Activity on Human Rho Kinase)
Human Rho kinase was prepared as follows. Using the following primer prepared based on the human ROCK-1 cDNA sequence reported by Ishizaki et al. (T. Ishizaki et al. EMBO J. 15, 1885-1893, 1996) and Human Placenta cDNA (Clontech, Lot. 7030086) as a template, PCR amplification was carried out.
The amplified DNA fragment was digested with Sac I and Not I, and inserted into the Sac I/Not I site of a commercially available vector for insect cell expression, pBAC-1 (Novagenn), whereby a […] human ROCK-1 protein expression vector was prepared. […]
A reaction mixture (total amount 100 μl) containing 20 mM (N-morpholino)propanesulfone acid-NaOH (pH 7.2), 0.1 mg/ml bovine serum albumin, 5 mM dithiothreitol, 10 mM β-glycerophosphoric acid, 50 μM sodium vanadate, 10 mM magnesium chloride, 1 μM [^32P] […] Then, the radioactivity incorporated into the substrate was measured using a liquid scintillation counter. […]

T1 sequence (Q13464 1-477): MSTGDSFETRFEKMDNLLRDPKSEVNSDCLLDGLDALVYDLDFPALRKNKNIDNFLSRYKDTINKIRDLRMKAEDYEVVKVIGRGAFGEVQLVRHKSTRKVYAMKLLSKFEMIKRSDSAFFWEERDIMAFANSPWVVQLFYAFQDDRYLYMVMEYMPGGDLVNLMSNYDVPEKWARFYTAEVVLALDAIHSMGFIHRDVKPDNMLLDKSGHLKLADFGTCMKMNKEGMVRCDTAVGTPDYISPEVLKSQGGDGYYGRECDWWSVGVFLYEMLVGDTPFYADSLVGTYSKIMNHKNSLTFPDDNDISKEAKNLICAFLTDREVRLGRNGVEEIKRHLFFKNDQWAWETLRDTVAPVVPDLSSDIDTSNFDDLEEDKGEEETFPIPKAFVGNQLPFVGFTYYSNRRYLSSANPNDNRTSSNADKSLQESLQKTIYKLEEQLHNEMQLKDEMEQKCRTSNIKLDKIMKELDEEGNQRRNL

IC50 | Compound
13 nM | N[C@H]1CCSc2cc(C(=O)Nc3ccncc3)ccc21 [Example 10, (S)-4-amino-N-(4-pyridyl)thiochromane-7-carboxamide]

Tested on: not given
Assay: not given
Details: not given

melting point | Compound
> 250 °C (dec.) | N[C@@H]1CCS(=O)(=O)c2cc(C(=O)Nc3ccncc3)ccc21 (as salt: HCl) (hydrate or solvate) [Example 7, (R)-4-amino-N-(4-pyridyl)thiochromane-7-carboxamide 1,1-dioxide]
> 230 °C (dec.) | NC1CCS(=O)(=O)c2cc(C(=O)Nc3ccncc3)ccc21 (stereo not drawn) (as salt: HCl) (hydrate or solvate) [Example 1, 4-amino-N-(4-pyridyl)thiochromane-7-carboxamide 1,1-dioxide]
> 280 °C (dec.) | NC1CCSc2cc(C(=O)Nc3ccncc3)ccc21 (stereo not drawn) (as salt: HCl) [Example 2, 4-amino-N-(4-pyridyl)thiochromane-7-carboxamide]
> 260 °C (dec.) | N[C@H]1CCSc2cc(C(=O)Nc3ccncc3)ccc21 (as salt: HCl) (hydrate or solvate) [Example 10, (S)-4-amino-N-(4-pyridyl)thiochromane-7-carboxamide]
> 275 °C (dec.) | N[C@@H]1CCS(=O)(=O)c2cc(C(=O)Nc3ccncc3)ccc21 (as salt: HCl) (hydrate or solvate) [Example 6, (R)-4-amino-N-(4-pyridyl)thiochromane-7-carboxamide 1,1-dioxide]
